Data on eleven compounds can be found in patent US20240262826A1, “WILD TYPE KIT INHIBITORS” (Blueprint Medicines Corporation, priority 2022, published 2024).

In this assay the target is wild type c-kit (Homo sapiens (Human), UniProt P10721). Briefly: PathScan phospho c-kit (Tyr719) sandwich ELISA in SCF-stimulated M-07e cells (pKIT assay). In kind it is cell-based. As to conditions: ELISA assay (values not marked *). An outline of the steps:
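Tyr719-phosphorylated c-kit was measured by colorimetric (TMB) sandwich ELISA in lysates of M-07e cells. Cells were starved 4 h without serum or GM-CSF, dosed 60 min at 37 °C with compound (8 points, duplicate, 0.25% DMSO), and stimulated 10 min with human SCF (500 ng/mL as added). IC50 values came from 4-parameter logistic regression.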
Background: An ELISA detects its analyte on a solid surface through an enzyme-linked reagent.

Sequence of wild type c-kit (P10721 26-976): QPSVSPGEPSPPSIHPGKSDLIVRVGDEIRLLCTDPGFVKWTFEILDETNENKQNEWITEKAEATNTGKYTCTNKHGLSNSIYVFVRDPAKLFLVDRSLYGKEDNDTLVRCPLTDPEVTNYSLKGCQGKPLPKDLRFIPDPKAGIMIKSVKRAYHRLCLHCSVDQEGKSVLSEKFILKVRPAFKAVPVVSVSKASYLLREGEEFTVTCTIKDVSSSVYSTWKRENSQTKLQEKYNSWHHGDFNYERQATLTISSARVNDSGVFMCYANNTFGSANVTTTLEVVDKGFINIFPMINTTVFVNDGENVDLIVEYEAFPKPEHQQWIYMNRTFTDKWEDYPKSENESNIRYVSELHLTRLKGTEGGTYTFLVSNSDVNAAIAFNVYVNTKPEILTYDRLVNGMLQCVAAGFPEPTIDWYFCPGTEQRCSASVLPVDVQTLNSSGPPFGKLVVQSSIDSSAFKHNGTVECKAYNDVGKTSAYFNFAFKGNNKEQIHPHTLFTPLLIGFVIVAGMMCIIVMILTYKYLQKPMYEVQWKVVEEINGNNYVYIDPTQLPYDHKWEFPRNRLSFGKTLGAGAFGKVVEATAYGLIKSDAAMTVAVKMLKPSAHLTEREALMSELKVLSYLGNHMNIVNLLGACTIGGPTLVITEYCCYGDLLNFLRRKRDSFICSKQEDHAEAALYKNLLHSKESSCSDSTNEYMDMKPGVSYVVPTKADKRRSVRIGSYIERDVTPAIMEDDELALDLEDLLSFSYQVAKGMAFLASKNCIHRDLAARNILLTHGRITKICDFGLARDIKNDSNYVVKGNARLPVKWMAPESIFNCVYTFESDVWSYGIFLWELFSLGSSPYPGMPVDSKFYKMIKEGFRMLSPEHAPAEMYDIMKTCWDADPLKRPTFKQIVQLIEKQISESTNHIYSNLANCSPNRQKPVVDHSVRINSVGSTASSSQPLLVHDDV

Broadly, the IC50 is the point on the concentration scale where inhibition reaches its midpoint. A higher IC50 goes with weaker potency. In turn, `O=C(Nc1cc(-c2nnn(C3CC3)n2)ccc1Cl)c1cnn2ccc(-c3cnn(CC4(O)CCOCC4)c3)cc12` [Example 236, N-(2-chloro-5-(2-cyclopropyl-2H-tetrazol-5-yl)phenyl)-5-(1-((4-hydroxytetrahydro-2H-pyran-4-yl)methyl)-1H-pyrazol-4-yl)pyrazolo[1,5-a]pyridine-3-carboxamide] came in with a concentration for half-maximal inhibition (IC50) of 0.6 nM. That is a sub-nanomolar value.
The value for `Cc1ccc(-c2nnn(C3CN(S(C)(=O)=O)C3)n2)cc1NC(=O)c1cnn2ccc(CCC(C)(C)O)cc12` [Example 155, 5-(3-hydroxy-3-methylbutyl)-N-(2-methyl-5-(2-(1-(methylsulfonyl)azetidin-3-yl)-2H-tetrazol-5-yl)phenyl)pyrazolo[1,5-a]pyridine-3-carboxamide] was 55.9 nM; that for `Cc1ccc(-c2nnn(CCOC3CCC3)n2)cc1NC(=O)c1cnn2ccccc12` [Example 12, N-(5-(2-(2-cyclobutoxyethyl)-2H-tetrazol-5-yl)-2-methylphenyl)pyrazolo[1,5-a]pyridine-3-carboxamide] was 2.4 nM.
The figure for `Cc1nn(C(CO)CO)c(C)c1-c1ccn2ncc(C(=O)Nc3cc(-c4nnn(C5CC5)n4)ccc3Cl)c2c1` [Example 276, N-(2-chloro-5-(2-cyclopropyl-2H-tetrazol-5-yl)phenyl)-5-(1-(1,3-dihydroxypropan-2-yl)-3,5-dimethyl-1H-pyrazol-4-yl)pyrazolo[1,5-a]pyridine-3-carboxamide] is 0.3 nM; for `COC[C@@H](C)Nc1ccn2ncc(C(=O)Nc3cc(-c4nnn(C5CN(C(=O)OC)C5)n4)ccc3C)c2c1` [Example 135, methyl (R)-3-(5-(3-(5-((1-methoxypropan-2-yl)amino)pyrazolo[1,5-a]pyridine-3-carboxamido)-4-methylphenyl)-2H-tetrazol-2-yl)azetidine-1-carboxylate] it is 53.8 nM.
The figure for `CCCS(=O)(=O)N1CC(n2nnc(-c3ccc(C)c(NC(=O)c4cnn5ccccc45)c3)n2)C1` [Example 174] is 28.5 nM; for `Cc1cc(Cl)c(NC(=O)c2cnn3ccc(N4CCOCC4)cc23)cc1-c1nnn(C2CC(F)(F)C2)n1` [Example 170, N-(2-chloro-5-(2-(3,3-difluorocyclobutyl)-2H-tetrazol-5-yl)-4-methylphenyl)-5-morpholinopyrazolo[1,5-a]pyridine-3-carboxamide] it is 6.3 nM.
The compound `Cc1ccc(-c2nnn(C)n2)cc1NC(=O)c1cnn2cc(-c3cnn(CC(C)(C)O)c3)cc(F)c12` [Example 214, 4-fluoro-6-(1-(2-hydroxy-2-methylpropyl)-1H-pyrazol-4-yl)-N-(2-methyl-5-(2-methyl-2H-tetrazol-5-yl)phenyl)pyrazolo[1,5-a]pyridine-3-carboxamide] had a concentration for half-maximal inhibition (IC50) of 2.7 nM.
The value for `COC(=O)N1CC(n2nnc(-c3ccc(C)c(NC(=O)c4cnn5ccc(N[C@@H]6CCOC6)cc45)c3)n2)C1` [Example 129, methyl (R)-3-(5-(4-methyl-3-(5-((tetrahydrofuran-3-yl)amino)pyrazolo[1,5-a]pyridine-3-carboxamido)phenyl)-2H-tetrazol-2-yl)azetidine-1-carboxylate] was 29.6 nM; that for `COCCNc1cc2c(C(=O)Nc3cc(-c4nnn(C5CN(C(=O)OC)C5)n4)ccc3C)cnn2cc1C` [Example 144, methyl 3-(5-(3-(5-((2-methoxyethyl)amino)-6-methylpyrazolo[1,5-a]pyridine-3-carboxamido)-4-methylphenyl)-2H-tetrazol-2-yl)azetidine-1-carboxylate] was 23.4 nM.
As for `COCCNc1ccn2ncc(C(=O)Nc3cc(-c4nnn(CCCC(F)(F)F)n4)ccc3C)c2c1` [Example 116, 5-((2-methoxyethyl)amino)-N-(2-methyl-5-(2-(4,4,4-trifluorobutyl)-2H-tetrazol-5-yl)phenyl)pyrazolo[1,5-a]pyridine-3-carboxamide], the IC50 turned out to be 3.2 nM.
